Among the data in patent US8633318B2, “Compounds for treatment or prevention of inflammation, an inflammatory disease, or an immune or an autoimmune disorder” (Proximagen Ltd, priority 2008, dated 2014) are IC50 values, retold here.

Broadly, the pIC50 is the negative decadic logarithm of the IC50, by convention in mol/L.

For this experiment, the target named is T1, human SSAO (Homo sapiens, UniProt Q16853).
T1 construct: made in house
T1 sequence (Q16853 29-763 limits assumed): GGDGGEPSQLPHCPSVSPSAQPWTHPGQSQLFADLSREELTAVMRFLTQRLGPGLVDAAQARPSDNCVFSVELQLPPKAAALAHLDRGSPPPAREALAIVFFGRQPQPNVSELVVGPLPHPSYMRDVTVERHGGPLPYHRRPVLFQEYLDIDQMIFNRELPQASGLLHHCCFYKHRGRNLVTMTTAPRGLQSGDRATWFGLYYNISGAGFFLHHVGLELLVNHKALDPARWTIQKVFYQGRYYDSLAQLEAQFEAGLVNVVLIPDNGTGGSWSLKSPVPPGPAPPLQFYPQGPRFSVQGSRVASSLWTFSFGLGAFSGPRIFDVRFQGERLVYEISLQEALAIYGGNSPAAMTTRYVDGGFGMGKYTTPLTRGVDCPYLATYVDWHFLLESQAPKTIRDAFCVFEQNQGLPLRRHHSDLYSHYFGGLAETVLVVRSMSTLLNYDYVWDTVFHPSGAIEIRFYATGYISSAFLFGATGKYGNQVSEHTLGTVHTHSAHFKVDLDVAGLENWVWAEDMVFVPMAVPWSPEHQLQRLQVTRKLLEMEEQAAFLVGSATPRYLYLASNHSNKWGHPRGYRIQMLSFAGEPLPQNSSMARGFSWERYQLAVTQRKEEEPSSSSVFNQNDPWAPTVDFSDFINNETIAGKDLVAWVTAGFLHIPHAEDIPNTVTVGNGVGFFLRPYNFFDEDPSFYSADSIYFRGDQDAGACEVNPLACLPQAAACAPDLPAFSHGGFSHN
As to the kind of experiment: SSAO enzyme inhibition assay (Amplex Red/HRP coupled, benzylamine substrate). Format: biochemical. Conditions: purified recombinantly expressed human SSAO; benzylamine 100 μM; about 60 minutes pre-incubation; room temperature. The method, then:
Biological Assay of the SSAO Enzyme Inhibitors
All assays were performed in room temperature with purified recombinantly expressed human SSAO. Enzyme was prepared essentially as described in Öhman et al. (Protein Expression and Purification 2006, 46, 321-331). The enzyme activity was measured with benzylamine as substrate and utilized the production of hydrogen peroxide for detection. In a horseradish peroxidise (HRP) coupled reaction, hydrogen peroxide oxidation of 10-acetyl-3,7-dihydroxyphenoxazine produced resorufin, which is a highly fluorescent compound (Zhout and Panchuk-Voloshina. Analytical Biochemistry 1997, 253, 169-174; Amplex® Red Hydrogen Peroxide/peroxidise Assay kit, Invitrogen A22188).
Briefly, test compounds were dissolved in dimethyl sulfoxide (DMSO) to a concentration of 10 mM. Dose-response measurements were assayed by either creating 1:10 serial dilutions in DMSO to produce a 7 point curve or by making 1:3 serial dilutions in DMSO to produce 11 point curves. […] Fluorescence intensity was then measured at several time points (15 minutes, 20 minutes and 30 minutes) exciting at 544 nm and reading the emission at 590 nm). […] The inhibition was measured as % decrease of the signal compared to a control without inhibitor (only diluted DMSO). […] Data was fitted to a four parameter logistic model and IC50 values were calculated using the GraphPad Prism 4 or XLfit 4 programs.

pIC50: −log10 of the molar value.

As to `Clc1ccc(-c2nn(C3CCNCC3)c3ccncc23)cc1` [Example 5, 3-(4-Chlorophenyl)-1-piperidin-4-yl-1H-pyrazolo[4,3-c]pyridine], the pIC50 was 6.92.

Turning to `Cc1ccc(-c2nn(C3CCOCC3)c3ccncc23)cc1` [Example 3, 3-(4-Methylphenyl)-1-(tetrahydro-2H-pyran-4-yl)-1H-pyrazolo[4,3-c]pyridine], the pIC50 was 7.05.
